For one series, the system named is murine cerebral malaria. The arrangement: method as in PMID 20691118. As to conditions: prescribed low dose levels; cited from earlier work.
In another series the test system is P. falciparum TM91-C235. Details: method as in ref 5 (supplement; main text 63). The settings on record: CQ and mefloquine resistant; ref 5 (supplement; main text 63); read-out: Antimalarial activities IC50 TM91-C235; cited from earlier work.
In series [1] the test system is late stage (>90% stage IV and V) P. falciparum NF54 gametocytes. The settings on record: cited from earlier work.
Series [2] deals with P. falciparum NF54. Details: method as in ref 4 (supplement; main text 62). The settings on record: Table S2, ± SEM; ref 4 (supplement; main text 62); read-out: Antimalarial activities IC50 NF54; cited from earlier work.
Another series relates to P. falciparum 7G8. The arrangement: method as in ref 5 (supplement; main text 63). As to conditions: CQ resistant; ref 5 (supplement; main text 63); read-out: Antimalarial activities IC50 7G8; cited from earlier work.
The test system of series [3] is early stage (>90% stage I-III) P. falciparum NF54 gametocytes. The settings on record: cited from earlier work.
Series [4] has as its system P. falciparum K1. The arrangement: method as in ref 4 (supplement; main text 62). As to conditions: Table S2, ± SEM; ref 4 (supplement; main text 62); read-out: Antimalarial activities IC50 K1; cited from earlier work.
Series [5] deals with P. falciparum W2. Details: method as in ref 4 (supplement; main text 62). As to conditions: Table S2, ± SEM; ref 4 (supplement; main text 62); read-out: Antimalarial activities IC50 W2; cited from earlier work.
The next series has as its system P. falciparum TM93-C1088. Details: method as in ref 5 (supplement; main text 63). As to conditions: atovaquone and CQ resistant; ref 5 (supplement; main text 63); read-out: Antimalarial activities IC50 TM93-C1088; cited from earlier work.
Series [6] concerns P. falciparum W2. The arrangement: method as in ref 5 (supplement; main text 63). As to conditions: CQ resistant; ref 5 (supplement; main text 63); read-out: Antimalarial activities IC50 W2; cited from earlier work.
The next series has as its system P. falciparum TM-C2B. Details: method as in ref 5 (supplement; main text 63). As to conditions: atovaquone and CQ resistant; ref 5 (supplement; main text 63); read-out: Antimalarial activities IC50 TM-C2B; cited from earlier work.
Series [7] in a line: Preliminary PK assessment in the murine model (toxicity). It is filed as in vivo. The source says: Overall, artemiside, artemisone, and the arylurea are the frontrunners in terms of global efficacies and relatively low toxicities in vitro. However, expression of therapeutic efficacy depends not only on biological activity but also on pharmacokinetic (PK) properties. This becomes important for the envisaged drug combinations ([67]). We report here on the in vitro absorption, distribution, metabolism, and excretion (ADME) properties and PK measurement in a murine model of the compounds of Fig. 2. […] The data are directly compared to those of DHA and artemether. An evaluation of the compounds to be taken forward is then presented.

Series [8] has as its system Chinese hamster ovary (CHO) cells. The settings on record: cited from earlier work.
Series [9] concerns P. falciparum W2. The arrangement: method as in ref 1 and 2 (supplement; main text 47, 48). As to conditions: Table S1, ± SEM; ref 1 and 2 (supplement; main text 47, 48); cited from earlier work.
For series [10], the system named is P. falciparum K1. The arrangement: method as in ref 1 and 2 (supplement; main text 47, 48). The settings on record: Table S1, ± SEM; ref 1 and 2 (supplement; main text 47, 48); cited from earlier work.
Series [11] relates to P. falciparum NF54. The arrangement: method as in ref 1 and 2 (supplement; main text 47, 48). The settings on record: Table S1, ± SEM; ref 1 and 2 (supplement; main text 47, 48); cited from earlier work.
The test system of series [12] is liver stage P. berghei ANKA GFP-Luc-SMcon sporozoites. Details: method as in ref 2 (supplement; main text 48). The settings on record: ref 2 (supplement; main text 48), cited from earlier work; for IC50: 48 h, ± SD.
In the next series the test system is HepG2. The settings on record: cited from earlier work.
The subject of the next series is P. falciparum D6. The arrangement: method as in ref 5 (supplement; main text 63). As to conditions: CQ sensitive; ref 5 (supplement; main text 63); read-out: Antimalarial activities IC50 D6; cited from earlier work.
Details of series [13]: method as in PMID 25759576. The settings on record: p.o., mouse; cited from earlier work.
On the set-up of series [14]: method as in PMID 25759576. The settings on record: i.v., mouse; cited from earlier work.
Where [15] appears, read: Table S3, ± SEM, ref 1 and 2 (supplement; main text 47, 48), read-out: Late Stage (LG, Luc 72 h) IC50.
Where [16] appears, read: Table S3, ± SEM, ref 1 and 2 (supplement; main text 47, 48), read-out: Early Stage (EG, Luc 48 h) IC50.

A word on the IC50: it is the midpoint of a concentration-inhibition curve. Usually EC50 stands for the concentration giving half of the maximal effect. The Cmax is the maximum level reached in the sampled fluid or tissue. For orientation: Tmax means the time at which the peak concentration occurs.

Where two headings read alike, the source gives them in different places.

For `C[C@H]1[C@H](OC(=O)CCC(=O)O)O[C@@H]2O[C@@]3(C)CC[C@H]4[C@H](C)CC[C@@H]1[C@@]24OO3` [Artesunate 4, artesunate], the “Cure of murine cerebral malaria” value in the series with murine cerebral malaria is “no cure”. Also, the IC50 was 2.9 ± 1.4 nM in the series on P. falciparum TM91-C235; 171 nM in series [1] (Table S4, n = 1, ref 4 (supplement; main text 62), read-out: Late stage IC50 (Luciferase 72 h)); 3 ± 0.29 nM with P. falciparum NF54 [2]; 1.5 ± 0.2 nM in the series with P. falciparum 7G8; 62.8 ± 3.14 nM in [3] (Table S4, ± SEM, n = 3, ref 4 (supplement; main text 62), read-out: Early stage IC50 (Luciferase 48 h)); 3.26 ± 0.2 nM in the series on P. falciparum K1 [4]. Besides, the IC50 with P. falciparum W2 [5] is 2.4 ± 0.2 nM; with P. falciparum TM93-C1088 it was 1.4 ± 0.1 nM; in the series with P. falciparum W2 [6] it was 3 ± 1.6 nM; in the series with P. falciparum TM-C2B, 2.5 ± 0.5 nM.
`C[C@H]1[C@H](Nc2ccc(F)cc2)O[C@@H]2O[C@@]3(C)CC[C@H]4[C@H](C)CC[C@@H]1[C@@]24OO3` [Arylamine 8]: the IC50 in [1] (setting [15]) is 16.4 ± 6.38 nM; with P. falciparum W2 [9], 3 ± 1 nM; in [3] (setting [16]), 38.2 ± 9 nM; with P. falciparum K1 [10] it was 0.64 ± 0.1 nM; with P. falciparum NF54 [11], 1.3 ± 0.6 nM. The “Toxicity in preliminary PK assessment” value in [7] is “untoward toxicity”. Also, in series [8] (read-out: Cytotoxicity EC50 CHO, MTT, ±SD, ref 1 and 2 (supplement; main text 47, 48)), the EC50 was 2900 ± 1400 nM.
Take `O=C1C(O)=C([C@H]2CC[C@H](c3ccc(Cl)cc3)CC2)C(=O)c2ccccc21` [Atovaquone]: the IC50 in series [12] is 2.52 ± 0.997 nM; with P. falciparum TM91-C235, 2.2 ± 0.7 nM; in the series with P. falciparum 7G8, 3.1 ± 0.9 nM; with P. falciparum TM93-C1088, 18800 nM; with P. falciparum TM-C2B it was 31800 nM. Besides, in series [12] (at 0.5 µM), the Maximum inhibition % was 94.85±2.76%. In addition, in the series with HepG2, the EC50 is above 250 nM.
For `CCN(CC)CCCC(C)Nc1ccnc2cc(Cl)ccc12` (stereo not drawn) [Chloroquine], the IC50 in the series with P. falciparum TM91-C235 is 70 ± 12 nM; with P. falciparum 7G8 it was 84 ± 18 nM; in the series on P. falciparum K1 [10] it was 154 ± 14 nM; in the series on P. falciparum NF54 [11], 10 ± 3 nM; in the series on P. falciparum TM93-C1088, 360 ± 38 nM; in the series on P. falciparum W2 [6], 195 ± 70 nM. Besides, the IC50 is 16 ± 2 nM in the series with P. falciparum D6 and 95 ± 23 nM in the series with P. falciparum TM-C2B.
For the compound `OC(c1cc(C(F)(F)F)nc2c(C(F)(F)F)cccc12)C1CCCCN1` (stereo not drawn) [Mefloquine MFQ, Mefloquine], the IC50 in the series on P. falciparum TM91-C235 is 107 ± 41 nM; in the series on P. falciparum 7G8 it was 5.4 ± 1.7 nM; with P. falciparum TM93-C1088, 16 ± 5 nM; in the series on P. falciparum TM-C2B, 130 ± 51 nM.
On to `CN(C)c1ccc2nc3ccc(=[N+](C)C)cc-3sc2c1` [Methylene Blue, reference compound], for which the IC50 is 143 nM in series [1] (setting [15]); 5.13 ± 0.31 nM in the series with P. falciparum W2 [9]; 95 nM in series [3] (setting [16]); 6.45 ± 0.3 nM in the series with P. falciparum K1 [10]; 5 ± 0.8 nM with P. falciparum NF54 [11]. The EC50 in [8] is 52600 ± 4500 nM.
As to `COc1ccc(C[C@H](N)C(=O)N[C@H]2[C@@H](O)[C@H](n3cnc4c(N(C)C)ncnc43)O[C@@H]2CO)cc1` [Puromycin], the IC50 in series [12] is 22.7 ± 4.53 nM. Besides, the Maximum inhibition % in [12] (at 5 µM) was 110±4.24%. Moreover, in the series with HepG2, the EC50 was 117 nM.
As for `COc1cc(C)c2c(Oc3cccc(C(F)(F)F)c3)c(OC)cc(NC(C)CCCN)c2n1` (stereo not drawn) [Tafenoquine], in series [13], the AUC is reported as 11,368 ± 1,232 min/μmol/liter, the Cmax was 3.06 ± 0.37 µM, the F is listed as 55 ± 2% and the Tmax is recorded as 9.0 ± 1.0 h. Besides, in series [14], the AUC is recorded as 2,363 ± 146 min/μmol/liter, the CLint is 1.84 mL/min/kg, the V was 2.34 ± 0.0 L/kg and the t1/2 is on record as 43.7 ± 1.5 h.

The values above are taken from PMC8284440, “Toward New Transmission-Blocking Combination Therapies: Pharmacokinetics of 10-Amino-Artemisinins and 11-Aza-Artemisinin and Comparison with Dihydroartemisinin and Artemether” (Antimicrobial Agents and Chemotherapy, 2021).
